Article PMC7714071, “Interaction of amyloid beta with humanin and acetylcholinesterase is modulated by ATP” (FEBS Open Bio, 2020)

Legend:
AChE-Aβ interaction = details: cited from earlier work
Source text: Access to the central domain of Aβ (residues 17–24) flanked by Lys‐16 and Lys‐28, known to be a critical structural element in fibrillar Aβ aggregates, might be regulated by binding of AChE and HN to their overlapping binding sites on Aβ. […] Moreover, we s ...

Aβ40 = experiment: ELISA, binding of biotinylated-HN to immobilised Aβ40; details: Aβ 100 nM on wells, biotinylated-HN 300 nM, increasing HS; three independent assays; Fig. 2B
Protocol: ELISAs were carried out as we previously reported. Nunc MaxiSorp 96‐well flat bottom plate (Thermo Fisher) wells were coated with samples as indicated. The plates were incubated overnight at 4 °C on a shaker to allow binding of the samples to the plate wells. After the incubation, the wells were washed 4× with TBST, filled with 400 µL blocking buffer (110 mM KCl, 5 mM NaHCO3, 5 mM MgCl2, 1 mM EGTA, 0.1 mM CaCl2, 20 mM HEPES, 1% BSA, pH 7.4), and incubated with shaking overnight at 4 °C. The wells were then washed 4× with TBST, and 100 µL of sample at the desired concentration was added to each well and incubated with shaking overnight at 4 °C. TBST was then used to wash the wells 4× before proceeding in one of two ways: (a) biotinylated samples were analyzed by adding 100 µL streptavidin–HRP conjugate in TBST (1 : 2500 dilution) to the samples followed by incubation for 3 h at RT on a shaker, or (b) samples without biotin were analyzed by adding 100 µL TBST containing the primary antibody as per the manufacturer's recommendation, incubating for 3 h at RT on a shaker, followed by washing the wells 4× with TBST. […] The reaction was stopped with 100 µL 2 M H2SO4 after incubating at RT for 0.5–15 min, resulting in a yellow color change, measured by absorbance at 450 nm. […] Statistical analysis was determined by the […] […] Data were expressed as the mean ± SD. […]

Substance | effect of HN on binding of AChE to Aβ (AChE-Aβ interaction) | effect of HS on binding of HN to Aβ40 (Aβ40)
Humanin [HN] | it is not abolished | –
heparan sulfate [HS] | – | No effects
